Patent US20230019491A1, “PYRIMIDINE TBK/IKKe INHIBITOR COMPOUNDS AND USES THEREOF” (Merck Patent GmbH, priority 2017, published 2023)

Legend:
TBK1 = biological target: T1, TBK1 (Homo sapiens, UniProt Q9UHD2); experiment: TBK biochemical assay; conditions: 10 point 1:4 dose response, 30 uM top concentration, 90 min at 25° C., LabChip EZ Reader II; read-out: TBK1_IC50
T1 sequence (Q9UHD2 1-729): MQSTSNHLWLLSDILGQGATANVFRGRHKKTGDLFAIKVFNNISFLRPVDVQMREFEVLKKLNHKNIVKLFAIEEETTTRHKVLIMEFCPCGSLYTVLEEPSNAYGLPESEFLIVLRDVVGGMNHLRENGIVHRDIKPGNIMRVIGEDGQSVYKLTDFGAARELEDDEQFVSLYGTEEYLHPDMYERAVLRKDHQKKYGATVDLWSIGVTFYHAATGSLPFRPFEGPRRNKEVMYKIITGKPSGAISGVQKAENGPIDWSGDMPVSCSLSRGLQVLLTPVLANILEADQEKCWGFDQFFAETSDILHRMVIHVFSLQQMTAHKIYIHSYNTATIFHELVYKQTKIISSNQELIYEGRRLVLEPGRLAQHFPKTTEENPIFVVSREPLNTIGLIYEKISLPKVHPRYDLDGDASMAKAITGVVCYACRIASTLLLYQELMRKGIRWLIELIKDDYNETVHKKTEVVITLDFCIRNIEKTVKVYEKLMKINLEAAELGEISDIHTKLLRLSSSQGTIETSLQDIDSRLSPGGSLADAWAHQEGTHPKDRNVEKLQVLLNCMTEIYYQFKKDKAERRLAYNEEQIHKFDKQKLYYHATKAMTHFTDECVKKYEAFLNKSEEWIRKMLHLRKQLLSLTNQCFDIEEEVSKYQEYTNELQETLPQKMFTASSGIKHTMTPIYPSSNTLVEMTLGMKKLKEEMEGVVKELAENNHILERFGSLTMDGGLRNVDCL
How it was run: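 Read-out was a Caliper LabChip mobility-shift assay, run after a 90-min, 25 °C reaction of TBK1 with substrate and compounds, quenched with stop buffer. Control wells received staurosporine at 10 uM final.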

IKKε = biological target: T2, IKKε (Homo sapiens, UniProt Q14164); experiment: IKKε biochemical assay; conditions: 10 point 1:4 dose response, 30 uM top concentration, 90 min at 25° C., LabChip EZ Reader II; read-out: IKKε_IC50
T2 sequence (Q14164 1-716): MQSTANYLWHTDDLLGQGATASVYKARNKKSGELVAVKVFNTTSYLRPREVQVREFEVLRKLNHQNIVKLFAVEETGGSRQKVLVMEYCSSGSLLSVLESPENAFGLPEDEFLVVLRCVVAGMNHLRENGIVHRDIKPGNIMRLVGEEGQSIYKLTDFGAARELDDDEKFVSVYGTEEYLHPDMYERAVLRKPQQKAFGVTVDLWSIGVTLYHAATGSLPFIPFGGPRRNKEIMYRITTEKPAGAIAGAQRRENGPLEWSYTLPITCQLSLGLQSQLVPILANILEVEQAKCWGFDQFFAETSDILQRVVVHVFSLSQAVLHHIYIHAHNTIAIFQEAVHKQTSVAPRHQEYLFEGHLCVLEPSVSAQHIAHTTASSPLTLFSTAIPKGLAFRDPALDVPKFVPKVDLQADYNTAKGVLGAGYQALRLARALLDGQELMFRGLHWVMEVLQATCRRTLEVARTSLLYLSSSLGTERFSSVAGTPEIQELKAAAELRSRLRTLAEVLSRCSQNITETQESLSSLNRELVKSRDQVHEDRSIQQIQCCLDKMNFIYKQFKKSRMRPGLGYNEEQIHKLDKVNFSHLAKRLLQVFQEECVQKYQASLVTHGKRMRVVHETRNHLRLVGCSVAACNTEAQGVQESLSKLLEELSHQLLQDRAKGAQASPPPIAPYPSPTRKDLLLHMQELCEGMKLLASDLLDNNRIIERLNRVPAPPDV
How it was run: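 Mobility-shift LabChip read-out followed a 90 min, 25° C. reaction of IKKε with substrate and test compound, with DMSO held at 1% final. Reactions were ended with stop buffer. Wells with 10 uM final staurosporine defined complete inhibition, and DMSO-only wells the uninhibited level.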

Compound | IC50 (TBK1) | IC50 (IKKε)
COc1nc(Nc2nccc(-c3ccc(OC4CCNCC4(F)F)c(C#N)c3)n2)ccc1N1CCN(C2COC2)C[C@H]1C (stereo partly drawn) [Example 129, 2-(3,3-Difluoro-piperidin-4-yloxy)-5-{2-[6-methoxy-5-((R)-2-methyl-4-oxetan-3-yl-piperazin-1-yl)-pyridin-2-ylamino]-pyrimidin-4-yl}-benzonitrile] | < 100 nM | < 100 nM
N#Cc1cc(-c2ccnc(Nc3ccccn3)n2)ccc1OC1CCN(C(=O)CO)CC1(F)F (centres unmarked) [Example 220, 2-[3,3-Difluoro-1-(2-hydroxy-acetyl)-piperidin-4-yloxy]-5-[2-(pyridin-2-ylamino)-pyrimidin-4-yl]-benzonitrile] | < 100 nM | < 100 nM
CN1CCC(c2ccc(Nc3nccc(-c4ccc(OC5CCN(C(=O)CO)CC5(F)F)c(C#N)c4)n3)cc2)CC1 (centres unmarked) [Example 148, 2-[[3,3-difluoro-1-(2-hydroxyacetyl)piperidin-4-yl]oxy]-5-(2-[[4-(1-methylpiperidin-4-yl)phenyl]amino]pyrimidin-4-yl)benzonitrile] | < 100 nM | < 100 nM
N#Cc1cc(-c2ccnc(Nc3ccc(C4CCN(C5COC5)CC4)cc3)n2)ccc1OC1CCOCC1 [Example 151, 5-{2-[4-(1-Oxetan-3-yl-piperidin-4-yl)-phenylamino]-pyrimidin-4-yl}-2-(tetrahydro-pyran-4-yloxy)-benzonitrile] | < 100 nM | < 100 nM
COc1nc(Nc2ncc(F)c(-c3ccc(O[C@H]4CCN(C(=O)C(C)O)C[C@H]4F)c(C#N)c3)n2)ccc1N1CCN(C2COC2)CC1 (stereo in doubt) [Example 297, 2-{[3-fluoro-1-(2-hydroxypropanoyl)piperidin-4-yl]oxy}-5-[5-fluoro-2-({6-methoxy-5-[4-(oxetan-3-yl)piperazin-1-yl]pyridin-2-yl}amino)pyrimidin-4-yl]benzonitrile] | < 100 nM | < 100 nM
COc1nc(Nc2nccc(-c3ccc(O[C@H]4CCN(C(=O)[C@H](C)O)C[C@H]4F)c(C#N)c3)n2)ccc1N1CCN(C)CC1 [Example 201, 2-[[(3R,4S)-3-fluoro-1-[(2S)-2-hydroxypropanoyl]piperidin-4-yl]oxy]-5-(2-[[6-methoxy-5-(4-methylpiperazin-1-yl)pyridin-2-yl]amino]pyrimidin-4-yl)benzonitrile] | < 100 nM | < 100 nM
COc1nc(Nc2nccc(-c3ccc(OC4(C)CCNCC4(F)F)c(C#N)c3)n2)ccc1N1CCN(C2COC2)CC1 (centres unmarked) [Example 263, 2-(3,3-Difluoro-4-methyl-piperidin-4-yloxy)-5-{2-[6-methoxy-5-(4-oxetan-3-yl-piperazin-1-yl)-pyridin-2-ylamino]-pyrimidin-4-yl}-benzonitrile] | < 100 nM | < 100 nM
COc1cc(Nc2nccc(-c3ccc(OC4CCN(C(=O)[C@H](C)O)CC4(F)F)c(C#N)c3)n2)ncc1N1CCN(C2COC2)CC1 (stereo partly drawn) [Example 322, 2-([33-difluoro-1-[(2S)-2-hydroxypropanoyl]piperidin-4-yl]oxy)-5-[2-([4-methoxy-5-[4-(oxetan-3-yl)piperazin-1-yl]pyridin-2-yl]amino)pyrimidin-4-yl]benzonitrile] | < 100 nM | < 100 nM
COc1nc(Nc2nccc(-c3ccc(OC4CCOCC4)c(C#N)c3)n2)ccc1C1CCN(C)C1 (centres unmarked) [Example 42, 5-(2-[[6-methoxy-5-(1-methylpyrrolidin-3-yl)pyridin-2-yl]amino]pyrimidin-4-yl)-2-(oxan-4-yloxy)benzonitrile] | < 100 nM | < 100 nM
COc1nc(Nc2nccc(-c3ccc(OC4CCNCC4(F)F)c(C#N)c3)n2)ccc1C(=O)N(C)C (centres unmarked) [Example 76, 6-[(4-[3-cyano-4-[(3,3-difluoropiperidin-4-yl)oxy]phenyl]pyrimidin-2-yl)amino]-2-methoxy-N,N-dimethylpyridine-3-carboxamide] | < 100 nM | < 100 nM
COc1nc(Nc2nccc(-c3ccc(OC4CCN(C(=O)[C@@H](C)O)CC4(F)F)c(C#N)c3)n2)ccc1N1CCN(C2COC2)[C@H](C)C1 (stereo partly drawn) [Example 126, 2-[3,3-Difluoro-1-((R)-2-hydroxy-propionyl)-piperidin-4-yloxy]-5-{2-[6-methoxy-5-((R)-3-methyl-4-oxetan-3-yl-piperazin-1-yl)-pyridin-2-ylamino]-pyrimidin-4-yl}-benzonitrile] | < 100 nM | < 100 nM
COc1nc(Nc2nccc(-c3ccc(OC4CCNCC4(F)F)c(C#N)c3)n2)ccc1N1CCN(C2COC2)CC1 (centres unmarked) [Example 119] | < 100 nM | < 100 nM
Cc1nc(C(=O)N2CCC(Oc3ccc(-c4ccnc(Nc5ccc(N6CCN(C7COC7)CC6)cc5)n4)cc3C#N)CC2)n[nH]1 [Example 273, 2-[[1-(5-methyl-1H-1,2,4-triazole-3-carbonyl)piperidin-4-yl]oxy]-5-[2-([4-[4-(oxetan-3-yl)piperazin-1-yl]phenyl]amino)pyrimidin-4-yl]benzonitrile] | < 100 nM | < 100 nM
Cc1nc(C(=O)N2CCC(Oc3ccc(-c4ccnc(Nc5ccc(N6CCN(C)CC6)cc5)n4)cc3C#N)CC2)n[nH]1 [Example 203, 2-[[1-(5-methyl-1H-1,2,4-triazole-3-carbonyl)piperidin-4-yl]oxy]-5-(2-[[4-(4-methylpiperazin-1-yl)phenyl]amino]pyrimidin-4-yl)benzonitrile] | < 100 nM | < 100 nM
COc1nc(Nc2ncc(F)c(-c3ccc(O[C@H]4CCN(C(=O)[C@H](C)O)C[C@H]4F)c(C#N)c3)n2)ccc1N1CCN(C2COC2)CC1 [Example 298, 2-({3-fluoro-1-[(2S)-2-hydroxypropanoyl]piperidin-4-yl}oxy)-5-[5-fluoro-2-({6-methoxy-5-[4-(oxetan-3-yl)piperazin-1-yl]pyridin-2-yl}amino)pyrimidin-4-yl]benzonitrile] | < 100 nM | < 100 nM
C[C@@H](O)C(=O)N1CC(Oc2ccc(-c3ccnc(Nc4ccc(N5CCN(C6COC6)CC5)cc4)n3)cc2C#N)C1 [Example 173, 2-([1-[(2R)-2-hydroxypropanoyl]azetidin-3-yl]oxy)-5-[2-([4-[4-(oxetan-3-yl)piperazin-1-yl]phenyl]amino)pyrimidin-4-yl]benzonitrile] | 100 to 1000 nM | 100 to 1000 nM
COc1nc(Nc2nccc(-c3ccc(OC4CCN(C(=O)C5CCO5)CC4(F)F)c(C#N)c3)n2)ccc1N1CCN(C2COC2)CC1 (centres unmarked) [Example 250, 2-[3,3-Difluoro-1-(oxetane-2-carbonyl)-piperidin-4-yloxy]-5-{2-[6-methoxy-5-(4-oxetan-3-yl-piperazin-1-yl)-pyridin-2-ylamino]-pyrimidin-4-yl}-benzonitrile] | < 100 nM | < 100 nM
COc1nc(Nc2nccc(-c3ccc(NC4CCOCC4)c(C#N)n3)n2)ccc1C(=O)N(C)C [Example 64, 6-[(4-[6-cyano-5-[(oxan-4-yl)amino]pyridin-2-yl]pyrimidin-2-yl)amino]-2-methoxy-N,N-dimethylpyridine-3-carboxamide] | < 100 nM | < 100 nM
COc1cccc(Nc2nccc(-c3ccc(O[C@H]4CCN(C(=O)[C@H](C)O)CC4(F)F)c(C#N)c3)n2)n1 [Example 240, 2-[[(4S)-3,3-difluoro-1-[(2S)-2-hydroxypropanoyl]piperidin-4-yl]oxy]-5-[2-[(6-methoxypyridin-2-yl)amino]pyrimidin-4-yl]benzonitrile] | 100 to 1000 nM | 100 to 1000 nM
